# Laboratory results taken from patent publication US7465708B2, “Branched cationic copolymers and methods for antimicrobial use” (priority 2002, dated 2008).
# Like-named read-outs stand apart in the source and are kept apart here. Positions of bridges follow the written chain, without caps; N, C: chain ends. Chains are numbered I, II in the order given. No end group written: not given here.
# What was measured:
# [1] = tested on: MDA-MB-435 cells; test: In vitro toxicity: reduction in cell number after incubation with polymers; assay type: cell-based
# Text: In vitro toxicity of these polymers was then examined on a malignant cell line (MDA-MB-435).
# [2] = tested on: mice; test: Acute in vivo toxicity after IV injection; conditions: for side effects of surviving mice (scale): one symbol per mouse; for histology of major organs: mice who died from polymers at higher dosages; for in vivo toxicity (in words): administered intravenously
# Text: One of the major limitations of cationic peptides is their potenitial toxicity when administered systemically. As a result, we tested the acute toxicity of these polymers after injecting them IV. […] Conversely, linear polymers that had minimal to moderate antibacterial properties had the greatest in vivo toxicity. […] Even if one arginine adjacent to the histidine residue replaces the amino terminal lysine in the HK polymer (e.g., HK-R), the polymer was still very toxic when administered intravenously. The in vivo toxicity of linear HK polymers from most to least is as follows: HR>HK-R>>HK. […] There were parallels between in vitro and in vivo toxicity studies (Tables 2 and 3). […] The data is consistent with linear polymers interacting and inhibiting ionic channels of the cardiovascular system (similar to neurotoxins). Intravenous injection of linear polymers with arginine or lysines adjacent (or near) to histidines should be avoided.
# [3] = tested on: gram negative bacteria E. coli transformed with a kanamycin-resistant plasmid; test: In vitro bacteria inhibition (MIC, turbidity O.D. 600 nm in LB broth); assay type: cell-based
# Method: Bacteria; A gram negative bacteria E. coli transformed with a kanamycin-resistant plasmid was used in these experiments and grown in LB media (Biofluids, Rockville, Md.).
# For in vitro studies, several polymers were tested for their ability to inhibit gram negative bacteria. […] The histidine and lysine ratio and their sequence order have an important role in the-polymers' effects. […] Since it is likely that H^3KN4b has the greatest ability to chelate key transitional elements, chelation of key elements in LB media, separate from the polymer's role of binding to the bacteria membrane, is unlikely to have a major role in the inhibition of bacteria. • 3) The sequence order of lysine and histidine in the branched polymer has a major role in the inhibition of bacteria. Altering these sequences affects the antibacterial activity of […]. Sufficient cationic amino acids are critical for binding whereas the exact function of histidine is unclear. Data supports that cationic amino acids need to be evenly distributed in branches, particularly at N-terminal ends. Too many cationic amino acids in the polymer, however, reduce antibacterial activity. • 4) Histidine may have a role in the interruption of iron transport systems and/or it may enhance the hydrophobic interactions of the polymer with the bacteria membrane.
# [4] = 50 μg/ml, 6 h incubation in DMEM/10% serum, counted 24 h later vs untreated cells
# [5] = 150 μg/ml, 6 h incubation in DMEM/10% serum, counted 24 h later vs untreated cells
# [6] = 100 μl/ml, 6 h incubation in DMEM/10% serum, counted 24 h later vs untreated cells
Substance,number of mice who survive treatment / number of mice in treatment group ([2]; 75 μg IV),number of mice who survive treatment / number of mice in treatment group ([2]; 150 μg IV),number of mice who survive treatment / number of mice in treatment group ([2]; 300 μg IV),number of mice who survive treatment / number of mice in treatment group ([2]; 600 μg IV),side effects of surviving mice (scale) ([2]; 150 μg IV),histology of major organs [2],further results
"I: KHHHKHHHKHHHKHHHKKKK / II: KHHHKHHHKHHHKHHHK / III: KHHHKHHHKHHHKHHHK / IV: KHHHKHHHKHHHKHHHK (amide I:18-IV:C, I:19-III:C, I:20-II:C) [H^3K4b, [K-H-H-H-K-H-H-H-K-H-H-H-K-H-H-H-K]4K3]",2/2,2/2,2/2,2/2,–,–,"Reduction In Cell Number [1, 4]: 0%; Reduction In Cell Number [1, 5]: 0%; Reduction In Cell Number [1, 6]: 0%; in vitro toxicity (in words, measured by cell number) ([1]; MDA-MB-435 cells): no observed toxicity; toxicity after repeated dosing (in words) ([2]; three 600 μg dosages, each separated by 4 h): no evidence of toxicity"
"I: KHHHNHHHKHHHKHHHKKKK / II: KHHHNHHHKHHHKHHHK / III: KHHHNHHHKHHHKHHHK / IV: KHHHNHHHKHHHKHHHK (amide I:18-IV:C, I:19-III:C, I:20-II:C) [H^3KN4b, [K-H-H-H-N-H-H-H-K-H-H-H-K-H-H-H-K]4K3]",–,–,–,–,–,–,antimicrobial activity (in words) [3]: moderate antimicrobial activity
"I: KHKHHKHHKHHKHHKHHKHKK / II: KHKHHKHHKHHKHHKHHKHK (amide I:21-II:C) [H^2K2b, [K-H-H-K-H-H-K-H-H-K-H-H-K-H-H-K-H-K]2K]",–,–,–,–,–,–,antimicrobial activity (in words) [3]: only moderate reduction on bacteria growth
"I: KHKHHKHHKHHKHHKHHKHKKKK / II: KHKHHKHHKHHKHHKHHKHK / III: KHKHHKHHKHHKHHKHHKHK / IV: KHKHHKHHKHHKHHKHHKHK (amide I:21-IV:C, I:22-III:C, I:23-II:C) [H^2K4b, [KHKHHKHHKHHKHHKHHKHK]4K3]",2/2,2/2,2/2,2/2,–,–,"Reduction In Cell Number [1, 4]: 5%; Reduction In Cell Number [1, 5]: 22%; Reduction In Cell Number [1, 6]: 12%"
"I: KHKHKHKHKGKHKHKHKHKKKK / II: KHKHKHKHKGKHKHKHKHK / III: KHKHKHKHKGKHKHKHKHK / IV: KHKHKHKHKGKHKHKHKHK (amide I:20-IV:C, I:21-III:C, I:22-II:C) [HK4b, [K-H-K-H-K-H-K-H-K-G-K-H-K-H-K-H-K-H-K]4K3]",2/2,2/2,2/2,2/2,–,–,–
"KHKHKHKHKGKHKHKHKHK [linear HK, [K-H-K-H-K-H-K-H-K-G-K-H-K-H-K-H-K-H-K]]",2/2,2/2,2/2,0/2,"++, +",no evidence of pathology,"Reduction In Cell Number [1]: 68%; in vitro toxicity (in words, measured by cell number) [1]: significantly more toxic; side effects of surviving mice (scale) ([2]; 300 μg IV): +++, +++"
"RHKHKHKHKGKHKHKHKHK [HK-R, [R-H-K-H-K-H-K-H-K-G-K-H-K-H-K-H-K-H-K]]",2/2,2/2,0/2,0/2,"+, +",no evidence of pathology,in vivo toxicity (in words) [2]: very toxic
"RHRHRHRHRGRHRHRHRHR [linear RH, [R-H-R-H-R-H-R-H-R-G-R-H-R-H-R-H-R-H-R]]",2/2,2/2,0/2,0/2,"+++, +",no evidence of pathology,side effects of surviving mice (scale) ([2]; 75 μg IV): + (moderate reduction in activity in for less than 1 min); in vivo toxicity (in words) [2]: most toxic of the linear polymers
